The numbers were not newly measured in patent publication US20140051733A1, “FEBUXOSTAT PHARMACEUTICAL COMPOSITIONS” (Dr. Reddy's Laboratories Ltd., priority 2012, published 2014), which cites them from elsewhere.

Where two headings read alike, the source gives them in different places.

For data set [1] the following is noted: Class 2 = low solubility, high permeability.

Consider `Cc1nc(-c2ccc(OCC(C)C)c(C#N)c2)sc1C(=O)O` [Febuxostat, 2-[3-cyano-4-(2-methylpropoxy)phenyl]-4-methylthiazole-5-carboxylic acid], for which the solubility result (in acetonitrile) was “slightly soluble”; the solubility entry (in dimethylformamide) is given as “freely soluble”; the solubility entry (in dimethylsulfoxide) was “soluble”; the solubility result (in ethanol) is “sparingly soluble”; the solubility entry (in methanol) is “slightly soluble”; the solubility entry (in water) was “practically insoluble”. For the same molecule, in data set [1], the “Biopharmaceutics Classification System class” value is listed as “Class 2”.
